Results: patent US8106197B2, “Aminoheteroaryl compounds as protein kinase inhibitors” (Pfizer Inc., priority 2003, dated 2012)

The compounds below were run against T1, HGFR (Homo sapiens, UniProt P08581) (assay: HGFR continuous-coupled spectrophotometric assay).
T1 construct: purchased Upstate 14-526
Assay type: biochemical

T1 sequence (P08581 974-1390 limits assumed): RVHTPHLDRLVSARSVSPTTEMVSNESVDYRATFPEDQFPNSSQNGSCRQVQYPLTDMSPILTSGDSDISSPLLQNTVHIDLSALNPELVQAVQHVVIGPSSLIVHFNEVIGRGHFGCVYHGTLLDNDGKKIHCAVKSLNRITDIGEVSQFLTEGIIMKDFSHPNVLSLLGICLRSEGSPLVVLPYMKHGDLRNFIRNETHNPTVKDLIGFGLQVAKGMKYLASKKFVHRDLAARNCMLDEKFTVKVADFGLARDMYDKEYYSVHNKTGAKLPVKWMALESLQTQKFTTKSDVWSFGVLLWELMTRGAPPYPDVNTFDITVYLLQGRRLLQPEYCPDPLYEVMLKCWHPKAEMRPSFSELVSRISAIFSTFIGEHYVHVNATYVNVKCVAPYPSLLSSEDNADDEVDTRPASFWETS

Compound | % inhibition
Nc1ncc(-c2ccc(C(=O)N3CCC(N4CCCC4)CC3)cc2)cc1OCc1ncc(C(F)(F)F)cc1Cl | % inhibition = 8
Nc1ncc(-c2ccc(C(=O)N3CCC(N4CCCC4)CC3)cc2)cc1OCc1csc2ccc(Cl)cc12 | % inhibition = 37
CC(C)(C)c1ccc(-c2noc(COc3cc(-c4ccc(C(=O)N5CCC(N6CCCC6)CC5)cc4)cnc3N)n2)cc1 | % inhibition = 36
Cc1noc(C)c1-c1nc(COc2cc(-c3ccc(C(=O)N4CCC(N5CCCC5)CC4)cc3)cnc2N)no1 | % inhibition = 6
COc1cc(COc2cc(-c3ccc(C(=O)N4CCC(N5CCCC5)CC4)cc3)cnc2N)cc(OC)c1 | % inhibition = 17
CCOC(=O)CCNS(=O)(=O)c1ccc(COc2cc(-c3ccc(C(=O)N4CCC(N5CCCC5)CC4)cc3)cnc2N)cc1 | % inhibition = 15
Nc1ncc(-c2ccc(C(=O)N3CCC(N4CCCC4)CC3)cc2)cc1OCc1ccc(C(=O)c2ccccc2)cc1 | % inhibition = 31
COc1cccc(COc2cc(-c3ccc(C(=O)N4CCC(N5CCCC5)CC4)cc3)cnc2N)c1OC | % inhibition = 23
Cc1cc(-c2onc(C)c2COc2cc(-c3ccc(C(=O)N4CCC(N5CCCC5)CC4)cc3)cnc2N)no1 | % inhibition = 22
Cc1nc2ccc(COc3cc(-c4ccc(C(=O)N5CCC(N6CCCC6)CC5)cc4)cnc3N)cc2c(=O)[nH]1 | % inhibition = 12
Nc1ncc(-c2ccc(C(=O)N3CCC(N4CCCC4)CC3)cc2)cc1OCc1ccc(S(=O)(=O)N2CCOCC2)cc1 | % inhibition = 14
COCOc1ccc(S(=O)(=O)c2ccc(COc3cc(-c4ccc(C(=O)N5CCC(N6CCCC6)CC5)cc4)cnc3N)cc2)cc1 | % inhibition = 18
COc1ccc2sc(COc3cc(-c4ccc(C(=O)N5CCC(N6CCCC6)CC5)cc4)cnc3N)cc2c1 | % inhibition = 13
Nc1ncc(-c2ccc(C(=O)N3CCC(N4CCCC4)CC3)cc2)cc1OCc1ccc(S(=O)(=O)c2ccc(F)cc2)cc1 | % inhibition = 13
Cc1nc2scc(COc3cc(-c4ccc(C(=O)N5CCC(N6CCCC6)CC5)cc4)cnc3N)c2c(=O)[nH]1 | % inhibition = 10
Nc1ncc(-c2ccc(C(=O)N3CCC(N4CCCC4)CC3)cc2)cc1OCc1cncc2ccccc12 | % inhibition = 9
Cn1c(COc2cc(-c3ccc(C(=O)N4CCC(N5CCCC5)CC4)cc3)cnc2N)nc2ccccc21 | % inhibition = 10
Nc1ncc(-c2ccc(C(=O)N3CCC(N4CCCC4)CC3)cc2)cc1OCc1nc(-c2ccccn2)no1 | % inhibition = 9
Nc1ncc(-c2ccc(C(=O)N3CCC(N4CCCC4)CC3)cc2)cc1OCc1c(F)ccc(F)c1Cl | % inhibition = 50
Cc1ccc(COc2cc(-c3ccc(C(=O)N4CCC(N5CCCC5)CC4)cc3)cnc2N)c(F)c1F | % inhibition = 39
Cc1ccc(F)c(COc2cc(-c3ccc(C(=O)N4CCC(N5CCCC5)CC4)cc3)cnc2N)c1F | % inhibition = 51
Cc1cc(COc2cc(-c3ccc(C(=O)N4CCC(N5CCCC5)CC4)cc3)cnc2N)ccc1F | % inhibition = 27
Cc1ccc(F)cc1COc1cc(-c2ccc(C(=O)N3CCC(N4CCCC4)CC3)cc2)cnc1N | % inhibition = 29
Nc1ncc(-c2ccc(C(=O)N3CCC(N4CCCC4)CC3)cc2)cc1OCc1cccc(Br)c1 | % inhibition = 24
Nc1ncc(-c2ccc(C(=O)N3CCC(N4CCCC4)CC3)cc2)cc1OCc1nc(N)c2ccccc2n1 | % inhibition = 15
Nc1ncc(-c2ccc(C(=O)N3CCC(N4CCCC4)CC3)cc2)cc1OCc1cccnc1 | % inhibition = 17
Nc1ncc(-c2ccc(C(=O)N3CCC(N4CCCC4)CC3)cc2)cc1OCc1ccccn1 | % inhibition = 16
COc1c(C)cnc(COc2cc(-c3ccc(C(=O)N4CCC(N5CCCC5)CC4)cc3)cnc2N)c1C | % inhibition = 20
Cc1onc(-c2ccccc2)c1COc1cc(-c2ccc(C(=O)N3CCC(N4CCCC4)CC3)cc2)cnc1N | % inhibition = 19
